From patent US10738028B2, “Spiro three-membered ring, spiro five-membered ring peptide deformylase inhibitor and use thereof in antibacteria and anti-tumor” (priority 2016, dated 2020)
Values after ≈ are worked out from the molar mass of the structure shown.

Legend:
Format in all cases: cell-based
[1] = tested on: Enterococcus faecalis (EFA); experiment: MIC, two-fold agar dilution (CLSI), clinical isolates
Description: (§1) 1. The invention adopts the two-fold agar dilution method recommended by the operating procedure of antimicrobial susceptibility testing set by American Clinical and Laboratory Standards Institute (CLSI) to determine the Minimum Inhibitory Concentration (MIC) of the test samples against the tested strains.

[2] = tested on: Enterococcus faecium (EFM); experiment: as above
Description: as §1

[3] = tested on: Escherichia coli (including ESBLs, non-ESBLs); experiment: as above
Description: as §1

[4] = tested on: Moraxella catarrhalis (BCA); experiment: as above
Description: as §1

[5] = tested on: Streptococcus pneoumoniae (SPN); experiment: as above
Description: as §1

[6] = tested on: methicillin-resistant Staphylococcus aureus (MRSA); experiment: as above
Description: as §1

[7] = tested on: methicillin-resistant Staphylococcus epidermidis (MRSE); experiment: as above
Description: as §1

[8] = tested on: methicillin-sensitive Staphylococcus aureus (MSSA); experiment: as above
Description: as §1

[9] = tested on: methicillin-sensitive Staphylococcus epidermidis (MSSE); experiment: as above
Description: as §1

[10] = tested on: HCT-116 colorectal cancer cell line; experiment: CCK-8 proliferation inhibition; details: Homo sapiens, HCT-116, 72 h, concentration of 30 μM; 72 hours; CCK-8; read-out: HCT116 inhibition rate/%
Protocol: (1) HCT-116 colorectal cancer cell line, A549 lung cancer cell line, MGC-803 gastric cancer cell line, BEL-7402 liver cancer cell line, Jurkat T cell leukemia cell line, HL60 acute myeloid leukemia cell line, Hela cervical cancer cell line, MCF-7 breast cancer cell line, PC3 prostate cancer cell line and SAOS-2 osteosarcoma cell line were made into single cell suspension, 180 μL of which was inoculated into 96-well culture plate, which was cultured overnight in CO2 incubator (37° C., 5% CO2, 95% air).
(2) Each of the spiro three-membered ring, spiro five membered ring peptide deformylase inhibitors was dissolved in DMSO, and was further formulated into drug solution with required different final concentration using corresponding cell culture medium. The drug solutions were added to the above cells respectively (20 μL/well), with the control group added with 1‰ DMSO, and cultured in a CO2 incubator for 72 hours.
(3) After incubation for 72 hours, the culture solution was decanted, and 100 μL of 1:10 diluted CCK-8 solution was added.
Wherein, in step (1), the concentration of the single cell suspension was 2000 cells/well.
Wherein, in step (2), HCT-116 cells were cultured in McCoy's 5A medium (containing 10% newborn bovine serum, 1% double antibody); A549 and PC3 cells were cultured in F12 medium (containing 10% newborn bovine serum, 1% double antibody); MGC-803, BEL-7402, SAOS-2, Jurkat and HL60 cells were cultured in 1640 medium (containing 10% newborn bovine serum, 1% double antibody); and MCF-7 and Hela cells were cultured in DMEM high glucose medium (containing 10% newborn bovine serum, 1% double antibody).

## CCCC[C@H](CN(O)C=O)C(=O)N1CC2(CC2)C[C@H]1C(=O)Nc1cnccn1 [Example 15]
[1]; strain EFA 15-1
  MIC (anti-bacterial activity): 1 µg/mL (≈ 2.57 µM)
[1]; strain EFA 15-2
  MIC (anti-bacterial activity): 1 µg/mL (≈ 2.57 µM)
[1]; strain EFA 15-3
  MIC (anti-bacterial activity): 1 µg/mL (≈ 2.57 µM)
[1]; strain EFA 15-4
  MIC (anti-bacterial activity): 1 µg/mL (≈ 2.57 µM)
[1]; strain EFA 15-5
  MIC (anti-bacterial activity): 4 µg/mL (≈ 10.3 µM)
[1]; strain EFA 15-6
  MIC (anti-bacterial activity): 4 µg/mL (≈ 10.3 µM)
[1]; strain EFA 15-9
  MIC (anti-bacterial activity): 1 µg/mL (≈ 2.57 µM)
[2]; strain EFM 15-1
  MIC (anti-bacterial activity): 1 µg/mL (≈ 2.57 µM)
[2]; strain EFM 15-2
  MIC (anti-bacterial activity): 1 µg/mL (≈ 2.57 µM)
[2]; strain EFM 15-3
  MIC (anti-bacterial activity): 0.125 µg/mL (≈ 0.321 µM)
[2]; strain EFM 15-4
  MIC (anti-bacterial activity): 1 µg/mL (≈ 2.57 µM)
[2]; strain EFM 15-5
  MIC (anti-bacterial activity): 0.125 µg/mL (≈ 0.321 µM)
[2]; strain EFM 15-6
  MIC (anti-bacterial activity): 1 µg/mL (≈ 2.57 µM)
[3]; strain ECO+ 15-1
  MIC (anti-bacterial activity): 32 µg/mL (≈ 82.2 µM)
[3]; strain ECO+ 15-2
  MIC (anti-bacterial activity): 64 µg/mL (≈ 164 µM)
[3]; strain ECO+ 15-3
  MIC (anti-bacterial activity): 32 µg/mL (≈ 82.2 µM)
[3]; strain ECO+ 15-4
  MIC (anti-bacterial activity): 32 µg/mL (≈ 82.2 µM)
[3]; strain ECO− 15-1
  MIC (anti-bacterial activity): 32 µg/mL (≈ 82.2 µM)
[3]; strain ECO− 15-2
  MIC (anti-bacterial activity): 64 µg/mL (≈ 164 µM)
[3]; strain ECO− 15-3
  MIC (anti-bacterial activity): 64 µg/mL (≈ 164 µM)
[3]; strain ECO− 15-4
  MIC (anti-bacterial activity): 64 µg/mL (≈ 164 µM)
[4]; strain BCA 14-1
  MIC (anti-bacterial activity): 0.5 µg/mL (≈ 1.28 µM)
[4]; strain BCA 14-4
  MIC (anti-bacterial activity): 0.5 µg/mL (≈ 1.28 µM)
[4]; strain BCA 14-5
  MIC (anti-bacterial activity): 0.125 µg/mL (≈ 0.321 µM)
[4]; strain BCA 14-6
  MIC (anti-bacterial activity): 1 µg/mL (≈ 2.57 µM)
[4]; strain BCA 14-7
  MIC (anti-bacterial activity): 0.125 µg/mL (≈ 0.321 µM)
[4]; strain BCA 14-8
  MIC (anti-bacterial activity): 0.5 µg/mL (≈ 1.28 µM)
[4]; strain BCA 14-10
  MIC (anti-bacterial activity): 0.125 µg/mL (≈ 0.321 µM)
[5]; strain SPN 16-2
  MIC (anti-bacterial activity): 0.015 µg/mL (≈ 0.0385 µM)
[5]; strain SPN 16-4
  MIC (anti-bacterial activity): 0.5 µg/mL (≈ 1.28 µM)
[6]; strain MRSA 15-1
  MIC (anti-bacterial activity): 0.125 µg/mL (≈ 0.321 µM)
[6]; strain MRSA 15-2
  MIC (anti-bacterial activity): 0.25 µg/mL (≈ 0.642 µM)
[6]; strain MRSA 15-3
  MIC (anti-bacterial activity): 0.125 µg/mL (≈ 0.321 µM)
[6]; strain MRSA 15-4
  MIC (anti-bacterial activity): 0.25 µg/mL (≈ 0.642 µM)
[7]; strain MRSE 15-1
  MIC (anti-bacterial activity): 0.125 µg/mL (≈ 0.321 µM)
[7]; strain MRSE 15-2
  MIC (anti-bacterial activity): 0.25 µg/mL (≈ 0.642 µM)
[7]; strain MRSE 15-3
  MIC (anti-bacterial activity): 0.25 µg/mL (≈ 0.642 µM)
[7]; strain MRSE 15-7
  MIC (anti-bacterial activity): 0.25 µg/mL (≈ 0.642 µM)
[8]; strain MSSA 15-3
  MIC (anti-bacterial activity): 0.25 µg/mL (≈ 0.642 µM)
[8]; strain MSSA 15-4
  MIC (anti-bacterial activity): 0.125 µg/mL (≈ 0.321 µM)
[8]; strain MSSA 15-5
  MIC (anti-bacterial activity): 0.125 µg/mL (≈ 0.321 µM)
[8]; strain MSSA 15-6
  MIC (anti-bacterial activity): 0.125 µg/mL (≈ 0.321 µM)
[9]; strain MSSE 15-3
  MIC (anti-bacterial activity): 0.25 µg/mL (≈ 0.642 µM)
[9]; strain MSSE 15-4
  MIC (anti-bacterial activity): 0.06 µg/mL (≈ 0.154 µM)
[9]; strain MSSE 15-5
  MIC (anti-bacterial activity): 0.06 µg/mL (≈ 0.154 µM)
[9]; strain MSSE 15-6
  MIC (anti-bacterial activity): 0.06 µg/mL (≈ 0.154 µM)
[10]
  inhibition at 30 µM: 24%

## CCCC[C@H](CN(O)C=O)C(=O)N1CC2(CC2)C[C@H]1C(=O)Nc1ccncn1 [Example 16, (S)-5-((R)-2-((N-hydroxyformamido)methyl)hexanoyl)-N-(pyrimidin-4-yl)-5-spiro[2.4]heptane-6-carboxamide]
[1]; strain EFA 15-1
  MIC (anti-bacterial activity): 4 µg/mL (≈ 10.3 µM)
[1]; strain EFA 15-2
  MIC (anti-bacterial activity): 4 µg/mL (≈ 10.3 µM)
[1]; strain EFA 15-3
  MIC (anti-bacterial activity): 0.25 µg/mL (≈ 0.642 µM)
[1]; strain EFA 15-4
  MIC (anti-bacterial activity): 4 µg/mL (≈ 10.3 µM)
[1]; strain EFA 15-5
  MIC (anti-bacterial activity): 4 µg/mL (≈ 10.3 µM)
[1]; strain EFA 15-6
  MIC (anti-bacterial activity): 4 µg/mL (≈ 10.3 µM)
[1]; strain EFA 15-9
  MIC (anti-bacterial activity): 4 µg/mL (≈ 10.3 µM)
[2]; strain EFM 15-1
  MIC (anti-bacterial activity): 0.5 µg/mL (≈ 1.28 µM)
[2]; strain EFM 15-2
  MIC (anti-bacterial activity): 1 µg/mL (≈ 2.57 µM)
[2]; strain EFM 15-3
  MIC (anti-bacterial activity): 0.25 µg/mL (≈ 0.642 µM)
[2]; strain EFM 15-4
  MIC (anti-bacterial activity): 2 µg/mL (≈ 5.14 µM)
[2]; strain EFM 15-5
  MIC (anti-bacterial activity): 0.25 µg/mL (≈ 0.642 µM)
[2]; strain EFM 15-6
  MIC (anti-bacterial activity): 2 µg/mL (≈ 5.14 µM)
[3]; strain ECO+ 15-1
  MIC (anti-bacterial activity): 32 µg/mL (≈ 82.2 µM)
[3]; strain ECO+ 15-2
  MIC (anti-bacterial activity): > 32 µg/mL
[3]; strain ECO+ 15-3
  MIC (anti-bacterial activity): > 32 µg/mL
[3]; strain ECO+ 15-4
  MIC (anti-bacterial activity): > 32 µg/mL
[3]; strain ECO− 15-1
  MIC (anti-bacterial activity): 32 µg/mL (≈ 82.2 µM)
[3]; strain ECO− 15-2
  MIC (anti-bacterial activity): > 32 µg/mL
[3]; strain ECO− 15-3
  MIC (anti-bacterial activity): > 32 µg/mL
[3]; strain ECO− 15-4
  MIC (anti-bacterial activity): > 32 µg/mL
[4]; strain BCA 14-1
  MIC (anti-bacterial activity): 0.5 µg/mL (≈ 1.28 µM)
[4]; strain BCA 14-4
  MIC (anti-bacterial activity): 1 µg/mL (≈ 2.57 µM)
[4]; strain BCA 14-5
  MIC (anti-bacterial activity): 0.25 µg/mL (≈ 0.642 µM)
[4]; strain BCA 14-6
  MIC (anti-bacterial activity): 1 µg/mL (≈ 2.57 µM)
[4]; strain BCA 14-7
  MIC (anti-bacterial activity): 0.25 µg/mL (≈ 0.642 µM)
[4]; strain BCA 14-8
  MIC (anti-bacterial activity): 0.25 µg/mL (≈ 0.642 µM)
[4]; strain BCA 14-10
  MIC (anti-bacterial activity): 0.25 µg/mL (≈ 0.642 µM)
[5]; strain SPN 16-2
  MIC (anti-bacterial activity): 4 µg/mL (≈ 10.3 µM)
[5]; strain SPN 16-4
  MIC (anti-bacterial activity): 0.25 µg/mL (≈ 0.642 µM)
[6]; strain MRSA 15-1
  MIC (anti-bacterial activity): 0.06 µg/mL (≈ 0.154 µM)
[6]; strain MRSA 15-2
  MIC (anti-bacterial activity): 0.25 µg/mL (≈ 0.642 µM)
[6]; strain MRSA 15-3
  MIC (anti-bacterial activity): 0.25 µg/mL (≈ 0.642 µM)
[6]; strain MRSA 15-4
  MIC (anti-bacterial activity): 1 µg/mL (≈ 2.57 µM)
[7]; strain MRSE 15-1
  MIC (anti-bacterial activity): 0.06 µg/mL (≈ 0.154 µM)
[7]; strain MRSE 15-2
  MIC (anti-bacterial activity): 1 µg/mL (≈ 2.57 µM)
[7]; strain MRSE 15-3
  MIC (anti-bacterial activity): 0.25 µg/mL (≈ 0.642 µM)
[7]; strain MRSE 15-7
  MIC (anti-bacterial activity): 0.25 µg/mL (≈ 0.642 µM)
[8]; strain MSSA 15-3
  MIC (anti-bacterial activity): 1 µg/mL (≈ 2.57 µM)
[8]; strain MSSA 15-4
  MIC (anti-bacterial activity): 0.25 µg/mL (≈ 0.642 µM)
[8]; strain MSSA 15-5
  MIC (anti-bacterial activity): 0.125 µg/mL (≈ 0.321 µM)
[8]; strain MSSA 15-6
  MIC (anti-bacterial activity): 1 µg/mL (≈ 2.57 µM)
[9]; strain MSSE 15-3
  MIC (anti-bacterial activity): 1 µg/mL (≈ 2.57 µM)
[9]; strain MSSE 15-4
  MIC (anti-bacterial activity): 0.06 µg/mL (≈ 0.154 µM)
[9]; strain MSSE 15-5
  MIC (anti-bacterial activity): 0.06 µg/mL (≈ 0.154 µM)
[9]; strain MSSE 15-6
  MIC (anti-bacterial activity): 0.06 µg/mL (≈ 0.154 µM)
[10]
  inhibition at 30 µM: 24%
